Test results from ChEMBL document CHEMBL2150981, “Discovery and optimization of benzotriazine di-N-oxides targeting replicating and nonreplicating Mycobacterium tuberculosis” (J Med Chem, 2012).
Values after ≈ are worked out from the molar mass of the structure shown.

Key:
[1] = system: Mycobacterium tuberculosis; experiment: Antitubercular activity against Mycobacterium tuberculosis H37Rv incubated for 10 days in anaerobic condition followed by 48 hrs incubation in aerobic condition by LORA assay; assay type: functional
[2] = Selectivity index, ratio of CC50 for Vero cells to MIC90 for Mycobacterium tuberculosis H37Rv isolate SRI; assay type: functional
[3] = system: Vero; experiment: Cytotoxicity against african green monkey Vero cells after 72 hrs by CellTiterGlo assay; conditions: chlorocebus sabaeus, vero, 72 h
[4] = system: Mycobacterium tuberculosis; experiment: Antitubercular activity against Mycobacterium tuberculosis H37Rv isolate SRI after 5 days by resazurin-based microplate assay; assay type: functional; conditions: 120 h
[5] = system: Mycobacterium tuberculosis; experiment: Antitubercular activity against Mycobacterium tuberculosis H37Rv isolate ITR after 7 days by luminescence spectrometry; assay type: functional; conditions: 168 h

Compound | MIC90 [1] [µg/mL] | Selectivity Index [2] | CC50 [3] [µg/mL] | MIC90 [4] [µg/mL] | MIC90 [5] [µg/mL]
[O-][n+]1nc(NC2CC2)[n+]([O-])c2ccccc21 | 1.8 (≈ 8.25 µM) | 8.3 | 21 (≈ 96.2 µM) | 2.5 (≈ 11.5 µM) | –
[O-][n+]1nc(NC2CCCC2)[n+]([O-])c2ccccc21 | 0.68 (≈ 2.76 µM) | 4.2 | 10 (≈ 40.6 µM) | 2.5 (≈ 10.2 µM) | 3.6 (≈ 14.6 µM)
COC(=O)/C=C/n1ccnc1[N+](=O)[O-] | 3.3 (≈ 16.7 µM) | 1.6 | 16 (≈ 81.2 µM) | 10 (≈ 50.7 µM) | 29 (≈ 147 µM)
CC(=O)Nc1cc(/C=C\c2ccc([N+](=O)[O-])o2)ns1 | 3.7 (≈ 13.2 µM) | >50 | > 50 | 0.98 (≈ 3.51 µM) | 3.8 (≈ 13.6 µM)
CSc1c(C)[n+]([O-])c2ccccc2[n+]1[O-] | 9.4 (≈ 42.3 µM) | >1.6 | > 16 | 10 (≈ 45 µM) | 28 (≈ 126 µM)
COCCNC(=O)c1ccc2c(c1)[n+]([O-])c(O)c(C#N)[n+]2[O-] | > 32 | – | > 16 | > 20 | –
COCCNC(=O)c1ccc2c(c1)[n+]([O-])c(C(C)=O)c(C)[n+]2[O-] | > 32 | >1.6 | > 16 | 10 (≈ 31.3 µM) | 27 (≈ 84.6 µM)
Cc1c(N2CCCC2)[n+]([O-])c2ccccc2[n+]1[O-] | > 32 | – | > 16 | > 10 | –
[O-][n+]1nc(NC2CCC2)[n+]([O-])c2ccccc21 | 0.84 (≈ 3.62 µM) | 7.1 | 8.9 (≈ 38.3 µM) | 1.2 (≈ 5.17 µM) | 0.94 (≈ 4.05 µM)
[O-][n+]1nc(NC2CCCCCC2)[n+]([O-])c2ccccc21 | 0.5 (≈ 1.82 µM) | 3.2 | 7.9 (≈ 28.8 µM) | 2.5 (≈ 9.11 µM) | 1.6 (≈ 5.83 µM)
CCCC(C)Nc1n[n+]([O-])c2ccccc2[n+]1[O-] (centres undefined) | 0.99 (≈ 3.99 µM) | 5.3 | 26 (≈ 105 µM) | 5 (≈ 20.1 µM) | 1.9 (≈ 7.65 µM)
CC(C)(C)C1CCC(Nc2n[n+]([O-])c3ccccc3[n+]2[O-])CC1 (centres undefined) | < 0.12 | 3.7 | 2.3 (≈ 7.27 µM) | 0.62 (≈ 1.96 µM) | 0.22 (≈ 0.695 µM)
CC(C)CCC(C)Nc1n[n+]([O-])c2ccccc2[n+]1[O-] (centres undefined) | 0.38 (≈ 1.38 µM) | 3.3 | 4.1 (≈ 14.8 µM) | 1.2 (≈ 4.34 µM) | 0.52 (≈ 1.88 µM)
[O-][n+]1nc(N[C@@H]2C[C@H]3CC[C@@H]2C3)[n+]([O-])c2ccccc21 | 0.42 (≈ 1.54 µM) | 5.5 | 3.4 (≈ 12.5 µM) | 0.62 (≈ 2.28 µM) | 0.6 (≈ 2.2 µM)
[H][C@]12C[C@]3([H])C[C@]([H])(C1)[C@H](Nc1n[n+]([O-])c4ccccc4[n+]1[O-])[C@]([H])(C2)C3 | 2.3 (≈ 7.36 µM) | 2.9 | 7.3 (≈ 23.4 µM) | 2.5 (≈ 8 µM) | 1.9 (≈ 6.08 µM)
CCNc1n[n+]([O-])c2cc(F)ccc2[n+]1[O-] | 0.75 (≈ 3.35 µM) | 7.3 | 4.6 (≈ 20.5 µM) | 0.62 (≈ 2.77 µM) | 0.35 (≈ 1.56 µM)
[O-][n+]1nc(NC2CC2)[n+]([O-])c2ccc(F)cc21 | 3.5 (≈ 14.8 µM) | 2.2 | 1.3 (≈ 5.5 µM) | 0.31 (≈ 1.31 µM) | 0.93 (≈ 3.94 µM)
[O-][n+]1nc(NC2CCC2)[n+]([O-])c2ccc(F)cc21 | 0.88 (≈ 3.52 µM) | 10 | 1.6 (≈ 6.39 µM) | 0.31 (≈ 1.24 µM) | 0.4 (≈ 1.6 µM)
[O-][n+]1nc(NC2CCCC2)[n+]([O-])c2ccc(F)cc21 | 0.34 (≈ 1.29 µM) | 7.3 | 2.3 (≈ 8.7 µM) | 0.31 (≈ 1.17 µM) | 0.33 (≈ 1.25 µM)
[O-][n+]1nc(NC2CCCCC2)[n+]([O-])c2ccc(F)cc21 | 0.47 (≈ 1.69 µM) | <4 | < 2.5 | 0.62 (≈ 2.23 µM) | 0.68 (≈ 2.44 µM)
[O-][n+]1nc(N[C@@H]2C[C@H]3CC[C@@H]2C3)[n+]([O-])c2ccc(F)cc21 | 0.21 (≈ 0.723 µM) | <4 | < 2.5 | 0.31 (≈ 1.07 µM) | < 0.12
CCNc1n[n+]([O-])c2cc(Cl)ccc2[n+]1[O-] | 0.41 (≈ 1.7 µM) | 2.1 | 2.6 (≈ 10.8 µM) | 1.2 (≈ 4.99 µM) | < 0.12
[O-][n+]1nc(NC2CC2)[n+]([O-])c2ccc(Cl)cc21 | 0.22 (≈ 0.871 µM) | 2.2 | 1.3 (≈ 5.15 µM) | 0.62 (≈ 2.45 µM) | 0.21 (≈ 0.831 µM)
[O-][n+]1nc(NC2CCC2)[n+]([O-])c2ccc(Cl)cc21 | < 0.12 | 10 | 1.6 (≈ 6 µM) | 0.15 (≈ 0.562 µM) | –
